Our source for the EC50 and bioavailability values is patent US20160362416A1, “ANTIVIRAL COMPOUNDS” (Gilead Sciences, Inc., priority 2012, published 2016).

Data set [1] has as its system NS5A chimeric genotype 1b Con1 replicon with genotype 4a ED43 strain NS5A gene. Description: HCV genotype 4a NS5A chimeric replicon assay. It counts as cell-based. The settings on record: Hepatitis C virus, 72 h, read-out: 4a (s) (nM). Background: In antiviral work, replicon cells carry a viral genome segment that copies itself.
Data set [2] concerns NS5A chimeric genotype 2a JFH-1 replicon with genotype 2b MD2b-1 strain NS5A gene (M31). As to the kind of experiment: HCV genotype 2b NS5A chimeric replicon assay, transient (t). It counts as cell-based. Conditions: Hepatitis C virus, 72 h, read-out: 2b (t) (nM). The protocol:
(§1) Evaluation of cell-based anti-HCV activity: Antiviral potency (EC50) was determined using a Renilla luciferase (RLuc)-based HCV replicon reporter assay. To perform the assay for genotype 1 and 2a JFH-1, stable HCV 1a RLuc replicon cells (harboring a dicistronic genotype 1a H77 replicon that encodes a RLuc reporter), stable HCV lb RLuc replicon cells (harboring a dicistronic genotype 1b Conl replicon that encodes a RLuc reporter), or stable HCV 2a JFH-1 Rluc replicon cells (harboring a dicistronic genotype 2a JFH-1 replicon that encodes a RLuc reporter; with L31 present in NS5A) were dispensed into 384-well plates for EC50 assays. To perform the assay for genotype 2a (with M31 present in NS5A) or 2b, NS5A chimeric genotype 2a JFH-1 replicons that encodes a RLuc-Neo reporter and either genotype 2a J6 strain NS5A gene or genotype 2b MD2b-1 strain NS5A gene (both with M31 present) respectively, were either transiently transfected (t) into Huh-Lunet cells or were established as stably replicating replicon cells (s) is provided. Either cells were dispensed into 384-well plates for EC50 assays. To perform the assay for genotype 3 and 4, NS5A chimeric genotype 1b Conl replicons that encodes a Pi-RLuc reporter and either genotype 3a S52 strain NS5A gene or genotype 4a ED43 strain NS5A gene respectively, were transiently transfected (t) into Huh-Lunet cells, which were subsequently dispensed into 384-well plates. Compounds were dissolved in DMSO at a concentration of 10 mM and diluted in DMSO either manually or using an automated pipeting instrument. Serially 3-fold diluted compounds were either manually mixed with cell culture media and added to the seeded cells or directly added to the cells using an automated instrument. DMSO was used as a negative (solvent; no inhibition) control, and the protease inhibitor ITMN-191 was included at a concentration >100×EC50 as a positive control. 72 hours later, cells were lysed and Renilla luciferase activity quantified as recommended by the manufacturer (Promega-Madison, Wis.). Non-linear regression was performed to calculate EC50 values.

For data set [3], the system named is stable HCV 2a JFH-1 Rluc replicon cells (L31 present in NS5A). As to the kind of experiment: HCV genotype 2a JFH-1 RLuc replicon reporter assay. The data set is classed as cell-based. The settings on record: Hepatitis C virus, 72 h, read-out: 2a JFH (nM).
Data set [4] deals with stable HCV 1a RLuc replicon cells (genotype 1a H77 replicon). Description: HCV genotype 1a RLuc replicon reporter assay. It counts as cell-based. The settings on record: Hepatitis C virus; stable genotype 1a H77 RLuc replicon cells, 72 hours.
Data set [5] relates to Q30E in genotype 1a NS5A replicon. As to the kind of experiment: Resistance mutant replicon assay, genotype 1a NS5A Q30E. It counts as cell-based, HCV. The settings on record: Hepatitis C virus, read-out: 1a Q30E (nM). The protocol: as §1
(§2) To determine the antiviral potency (EC50) against resistance mutants, resistance mutations, including M28T, Q30R, Q30H, Q30E, L31M, Y93C, Y93H, and Y93N in genotype 1a NS5A, Y93H and L31V/Y93H in genotype 1b NS5A, and Y93H for in genotype 3a NS5A, were introduced individually into either 1a Pi-Rluc or 1b Pi-Rluc replicons by site directed mutagenesis. Replicon RNA of each resistant mutant was transiently transfected into Huh-7-derived cured-51 cells and antiviral potency was determined on these transfected cells as described above.

Data set [6] deals with L31V/Y93H in genotype 1b NS5A replicon. As to the kind of experiment: Resistance mutant replicon assay, genotype 1b NS5A L31V/Y93H. It counts as cell-based, HCV. The settings on record: Hepatitis C virus, read-out: 1b L31V/Y93H (nM). As to the method:
as §1, §2

The test system of data set [7] is Y93H in genotype 3a NS5A replicon. Description: Resistance mutant replicon assay, genotype 3a NS5A Y93H. The settings on record: Hepatitis C virus, read-out: 3a Y93H (nM). The data set is classed as cell-based, HCV. Put shortly:
(§3)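 Cured-51 cells transfected with mutant Pi-RLuc replicon RNA; 72 h compound; lysis, Renilla luciferase; EC50 by non-linear regression.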

Data set [8] relates to stable HCV 1b RLuc replicon cells (genotype 1b Con1 replicon). Description: HCV genotype 1b RLuc replicon reporter assay. It counts as cell-based. Conditions: Hepatitis C virus; stable genotype 1b Con1 RLuc replicon cells, 72 hours. Put shortly: (§4)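 Stable 1b Con1 RLuc replicon cells, or Huh-Lunet cells transiently transfected with chimeric replicons (Con1 backbone carrying 3a S52 or 4a ED43 NS5A; JFH-1 backbone carrying 2b MD2b-1 NS5A, M31), treated with 3-fold dilutions for 72 h. Renilla luciferase read after lysis; EC50 by non-linear regression.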

Data set [9] deals with NS5A chimeric genotype 2a JFH-1 replicon with genotype 2a J6 strain NS5A gene (M31). Description: HCV genotype 2a J6 NS5A chimeric replicon assay, transient (t). The data set is classed as cell-based. The settings on record: Hepatitis C virus, 72 h, read-out: 2a J6 (t) (nM).
Data set [10] deals with Y93N in genotype 1a NS5A replicon. As to the kind of experiment: Resistance mutant replicon assay, genotype 1a NS5A Y93N. The data set is classed as cell-based, HCV. Conditions: Hepatitis C virus, read-out: 1a Y93N (nM). Put shortly:
as §3

Data set [11] relates to NS5A chimeric genotype 1b Con1 replicon with genotype 3a S52 strain NS5A gene. As to the kind of experiment: HCV genotype 3a NS5A chimeric replicon assay. The data set is classed as cell-based. The settings on record: Hepatitis C virus, 72 h, read-out: 3a (nM). The essentials: as §4
For data set [12], the system named is Y93H in genotype 1a NS5A replicon. As to the kind of experiment: Resistance mutant replicon assay, genotype 1a NS5A Y93H. It counts as cell-based, HCV. Conditions: Hepatitis C virus, read-out: 1a Y93H (nM). The essentials: as §3
A short description of data set [13]: IV and PO single dose pharmacokinetic studies in SD rats. The data set is classed as in vivo. Conditions: Sprague-Dawley, rat, plasma, male SD rats, IV infusion 1 mg/kg, oral gavage 2 mg/kg, read-out: Rat % F. The protocol:
IV and PO Single Dose Pharmacokinetic Studies in SD Rats: The pharmacokinetics of selected compounds was characterized in male Sprague-Dawley (SD) rats (250-300 g). In this study, two groups of naïve purebred SD rats (N=3 per group, fasted over night) received the selected compound either as an intravenous (IV) infusion (1 mg/kg over 30 minutes) via the jugular vein or by oral gavage (2 mg/kg). The intravenous (IV) dosing vehicle was 5% ethanol, 35% polyethylene glycol 400 (PEG 400) and 60% water pH 2.0. The oral dosing vehicle was 5% ethanol, 55% PEG 400 and 40% citrate buffer pH 2.2.
Serial blood samples (approximately 0.3 mL each) were collected from jugular vein or other suitable vein at specified time points. For the IV infusion group, the blood samples were collected predose and at 0.25, 0.48, 0.58, 0.75, 1.5, 3, 6, 8, 12 and 24 hours after the start of infusion. For the oral group, the blood samples were collected predose and at 0.25, 0.50, 1, 2, 4, 6, 8, 12 and 24 hours after dosing. The blood samples were collected into Vacutainer™ tubes containing EDTA-K3 as the anti-coagulant and were centrifuged at approximately 4° C. to obtain plasma. The plasma samples were stored at −20° C. until analysis by LC/MS/MS.
A bioanalytical method utilizing high performance liquid chromatography coupled to tandem mass spectrometry (LC/MS/MS) was developed for analysis of the selected compound in rat plasma. Detection was performed using selected reaction monitoring (SRM); Ions representing the precursor (M+H)^+ species was selected in quadrupole 1 (Q1) and collided with argon gas in the collision cell (Q2) to generate specific product ion, which was subsequently monitored by quadrupole 3 (Q3). Standard curve and quality control samples were prepared in male rat plasma and processed in the same way as the test samples to generate quantitative data.
Pharmacokinetic parameters were generated using non-compartmental pharmacokinetic analysis (Phoenix WinNonlin, version 6.3). Values below the lower limit of quantification (LLOQ) were assigned a value of zero if predose and treated as missing thereafter. Area under the curve (AUC) was calculated using the linear trapezoidal rule. The oral bioavailability (% F) was determined by comparison of the area under the curve (AUC) of the compound and/or a metabolite generated in plasma following oral administration to that generated following intravenous administration.

Data set [14] relates to NS5A chimeric genotype 2a JFH-1 replicon with genotype 2b MD2b-1 strain NS5A gene (M31). As to the kind of experiment: HCV genotype 2b NS5A chimeric replicon assay, stable (s). The data set is classed as cell-based. Conditions: Hepatitis C virus, 72 h, read-out: 2b (s) (nM).

For the compound `COC[C@H]1C[C@@H](c2ncc(-c3ccc4c(c3)COc3cc5c(ccc6nc([C@@H]7CC[C@H](C)N7C(=O)[C@@H](NC(=O)OC)C(C)C)[nH]c65)cc3-4)[nH]2)N(C(=O)[C@@H](NC(=O)OC)C2C[C@@H](C)O[C@H](C)C2)C1` (stereo partly drawn) [Example AB, Methyl {(2S)-1-[(2S,5S)-2-(9-{2-[(2S,4S)-1-{(2S)-2-[(2R,6R)-2,6-dimethyltetrahydro-2H-pyran-4-yl]-2-[(methoxycarbonyl)amino]acetyl}-4-(methoxymethyl)pyrrolidin-2-yl]-1H-imidazol-5-yl}-1,11-dihydroisochromeno[4′,3′:6,7]naphtho[1,2-d]imidazol-2-yl)-5-methylpyrrolidin-1-yl]-3-methyl-1-oxobutan-2-yl}carbamate], the EC50 in data set [1] was found to be 0.006 nM; in data set [2], 0.024 nM; in [3], 0.011 nM; in [4] it was 26 pM; in [5] it was 0.082 nM; in data set [6], 0.668 nM. Moreover, the EC50 in data set [7] came to 8.77 nM; in data set [8], 46 pM; in [9] it was 0.028 nM; in [10], 0.418 nM; in data set [11] it was 0.025 nM; in [12], 0.163 nM.

For the compound `COC(=O)N[C@H](C(=O)N1[C@@H](C)CC[C@H]1c1nc2ccc3cc4c(cc3c2[nH]1)OCc1cc(-c2cnc([C@@H]3CC[C@H](C)N3C(=O)[C@@H](NC(=O)OC)C3CCOCC3)[nH]2)ccc1-4)C(C)C` [Comp 7, reference compound], the EC50 in data set [1] is 0.019 nM; in data set [2] it was 0.037 nM; in [3] it was 0.015 nM; in [4] it was 18 pM; in [8], 28 pM; in [14], 0.088 nM. Moreover, the EC50 in data set [9] and in data set [11] was 0.035 nM throughout. Besides, the bioavailability in data set [13] was determined as 10.2%.

With `CC[C@H]1C[C@@H](c2nc3ccc4cc5c(cc4c3[nH]2)OCc2cc(-c3cnc([C@@H]4CC[C@H](C)N4C(=O)[C@@H](NC(=O)OC)C(C)C)[nH]3)ccc2-5)N(C(=O)[C@@H](NC(=O)OC)C2C[C@@H](C)O[C@H](C)C2)C1` (stereo partly drawn) [Example AF, Methyl [(1S)-1-[(2R,6R)-2,6-dimethyltetrahydro-2H-pyran-4-yl]-2-{(2S,4S)-4-ethyl-2-[9-(2-{(2S,5S)-1-[N-(methoxycarbonyl)-L-valyl]-5-methylpyrrolidin-2-yl}-1H-imidazol-5-yl)-1,11-dihydroisochromeno[4′,3′:6,7]naphtho[1,2-d]imidazol-2-yl]pyrrolidin-1-yl}-2-oxoethyl]carbamate], the EC50 in data set [1] came to 0.005 nM; in data set [2], 0.014 nM; in data set [3], 0.012 nM; in [4], 22 pM; in [5] it was 0.097 nM; in [6], 0.18 nM. In addition, the EC50 in data set [7] was 4.59 nM; in data set [8], 37 pM; in [9] it was 0.003 nM; in [10], 0.899 nM; in [11] it was 0.016 nM; in data set [12], 0.268 nM.

As to `COC(=O)N[C@H](C(=O)N1[C@@H](C)CC[C@H]1c1ncc(-c2ccc3c(c2)COc2cc4c(ccc5nc([C@@H]6CC[C@H](C)N6C(=O)[C@@H](NC(=O)OC)C6CCOCC6)[nH]c54)cc2-3)[nH]1)C(C)C` [Comp 5, reference compound], the EC50 turned out to be 0.013 nM in [3]; 22 pM in data set [4]; 0.297 nM in [5]; 0.549 nM in data set [7]; 29 pM in data set [8]; 0.054 nM in data set [14]. In addition, the EC50 in data set [9] was 0.012 nM; in data set [11], 0.041 nM; in data set [12], 0.466 nM. Moreover, in [13], the bioavailability was 22%.
